Our source for the T/C values is PubChem BioAssay AID258 (DTP/NCI, 2004).

This assay has as its system CD2F1 mice, L1210 leukemia sc, survival T/C. The assay can be described thus: NCI In Vivo Anticancer Drug Screen. Data for tumor model L1210 Leukemia (subcutaneous) in CD2F1 (CDF1) mice. The following applies: endpoint: median survival time, higher = longer survival. The method in brief:
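Mice with transplanted tumor dosed; survival/tumor size read; T/C vs vehicle controls.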

“And” between values parts separate entries of the source, which are not always exact repeats. Equal entries are not always repeated. Inconclusive results and toxic doses are left out. Starred links: 1 amine or outer side, 2 acyl side, 3 side chain; linkers in the order of their positions; H or OH if unused. Positions of bridges follow the written chain, without caps; N, C: chain ends. Non-standard residues stand in square brackets, D forms with d. Residues, ends and D or L forms follow the SMILES beside them. Chains are numbered I, II in the order given. Actinocin(9to1) = Cc1c2oc3c(C)ccc(C(=O)[*:1])c3nc-2c(C(=O)[*:2])c(N)c1=O; aThr = C[C@H](O)[C@H](N)C(=O)O; NMeV = CN[C@H](C(=O)O)C(C)C; Sar = CNCC(=O)O

Regarding `Cc1c2oc3c(C)ccc(C(=O)N[C@@H]4C(=O)N[C@H](C(C)C)C(=O)N5CCC[C@H]5C(=O)N(C)CC(=O)N(C)[C@@H](C(C)C)C(=O)O[C@H]4C)c3nc-2c(C(=O)N[C@@H]2C(=O)N[C@H](C(C)C)C(=O)N3CCC[C@H]3C(=O)N(C)CC(=O)N(C)[C@@H](C(C)C)C(=O)O[C@H]2C)c(N)c1=O` (I: [aThr][dV]P[Sar][NMeV] / II: [aThr][dV]P[Sar][NMeV]; ester I:1-I:C, II:1-II:C; linker I:N-II:N via Actinocin(9to1)), the T/C (dose: 0.05 mg/kg/injection, schedule: Q01DX009 (sc), vehicle: saline) was 101 % of control; the T/C (dose: 0.05 mg/kg/injection, schedule: Q01DX Z (sc), vehicle: other) is 108 % of control and 100 % of control; the T/C (dose: 0.05 mg/kg/injection, schedule: Q01DX Z (sc), vehicle: saline) is 100 % of control; the T/C (dose: 0.08 mg/kg/injection, schedule: Q01DX Z (sc), vehicle: other) was 112 % of control; the T/C (dose: 0.08 mg/kg/injection, schedule: Q07DX Z (sc), vehicle: other) is 100 % of control; the T/C (dose: 0.09 mg/kg/injection, schedule: Q01DX Z (sc), vehicle: other) was 116 % of control. The T/C by setting is: (dose: 0.1 mg/kg/injection, schedule: Q01DX009 (sc), vehicle: saline) 113 % of control; (dose: 0.13 mg/kg/injection, schedule: Q01DX009 (sc), vehicle: saline) 122 % of control; (dose: 0.14 mg/kg/injection, schedule: Q07DX Z (sc), vehicle: other) 112 % of control; (dose: 0.15 mg/kg/injection, schedule: Q01DX009 (sc), vehicle: saline) 120 % of control; (dose: 0.2 mg/kg/injection, schedule: Q01DX009 (sc), vehicle: saline) 105 % of control and 113 % of control; (dose: 0.23 mg/kg/injection, schedule: Q07DX Z (sc), vehicle: other) 112 % of control. The T/C (dose: 0.25 mg/kg/injection, schedule: Q01DX009 (sc), vehicle: saline) is 93 % of control; the T/C (dose: 0.3 mg/kg/injection, schedule: Q01DX009 (sc), vehicle: saline) was 95 % of control; the T/C (dose: 0.39 mg/kg/injection, schedule: Q07DX Z (sc), vehicle: other) was 112 % of control; the T/C (dose: 0.42 mg/kg/injection, schedule: Q01DX Z (sc), vehicle: other) is 116 % of control; the T/C (dose: 0.7 mg/kg/injection, schedule: Q01DX Z (sc), vehicle: other) is 112 % of control; the T/C (dose: 1.17 mg/kg/injection, schedule: Q01DX Z (sc), vehicle: other) was 100 % of control. The T/C runs as follows: (dose: 12.0 micrograms/kg/injection, schedule: Q01DX009 (ip), vehicle: saline) 101 % of control; (dose: 12.0 micrograms/kg/injection, schedule: Q01DX009 (sc), vehicle: saline) 101 % of control; (dose: 25.0 micrograms/kg/injection, schedule: Q01DX009 (ip), vehicle: saline) 102 % of control; (dose: 25.0 micrograms/kg/injection, schedule: Q01DX009 (sc), vehicle: saline) 100 % of control; (dose: 50.0 micrograms/kg/injection, schedule: Q01DX009 (ip), vehicle: saline) 98 % of control; (dose: 50.0 micrograms/kg/injection, schedule: Q01DX009 (sc), vehicle: saline) 101 % of control. Moreover, the T/C (dose: 100.0 micrograms/kg/injection, schedule: Q01DX009 (ip), vehicle: saline) was 113 % of control; the T/C (dose: 100.0 micrograms/kg/injection, schedule: Q01DX009 (sc), vehicle: saline) is 103 % of control and 119 % of control; the T/C (dose: 200.0 micrograms/kg/injection, schedule: Q01DX009 (ip), vehicle: saline) was 107 % of control; the T/C (dose: 200.0 micrograms/kg/injection, schedule: Q01DX009 (sc), vehicle: saline) was 114 % of control and 118 % of control; the T/C (dose: 400.0 micrograms/kg/injection, schedule: Q01DX009 (sc), vehicle: saline) is 112 % of control and 86 % of control.

On to `O=S1(=O)CS(=O)(=O)OCCO1`, for which the T/C by setting is: (dose: 25.0 mg/kg/injection, schedule: Q01DX009 (ip), vehicle: Klucel (hydroxypropylcellulose) (HPC)) 216 % of control; (dose: 50.0 mg/kg/injection, schedule: Q01DX009 (ip), vehicle: Klucel (hydroxypropylcellulose) (HPC)) 175 % of control.

As to `O=C1NC(=O)C2C3C=CC(C12)C1C2C(=O)NC(=O)C2C31` (centres undefined), the T/C reads like this: (dose: 3.0 mg/kg/injection, schedule: Q01DX005 (iv), vehicle: other) 108 % of control; (dose: 6.0 mg/kg/injection, schedule: Q01DX005 (ip), vehicle: other) 111 % of control; (dose: 6.0 mg/kg/injection, schedule: Q01DX005 (iv), vehicle: other) 104 % of control; (dose: 6.0 mg/kg/injection, schedule: Q01DX005 (sc), vehicle: other) 105 % of control; (dose: 12.0 mg/kg/injection, schedule: Q01DX005 (ip), vehicle: other) 104 % of control; (dose: 12.0 mg/kg/injection, schedule: Q01DX005 (iv), vehicle: other) 104 % of control and 107 % of control. The T/C is, setting by setting: (dose: 12.0 mg/kg/injection, schedule: Q01DX005 (sc), vehicle: other) 108 % of control; (dose: 12.0 mg/kg/injection, schedule: Q01DX009 (ip), vehicle: other) 115 % of control; (dose: 14.0 mg/kg/injection, schedule: Q01DX009 (ip), vehicle: water) 110 % of control; (dose: 17.2 mg/kg/injection, schedule: Q01DX005 (iv), vehicle: other) 107 % of control; (dose: 17.2 mg/kg/injection, schedule: Q01DX009 (ip), vehicle: other) 122 % of control; (dose: 18.0 mg/kg/injection, schedule: Q01DX009 (ip), vehicle: clinical formulation) 121 % of control. The T/C by setting is: (dose: 24.5 mg/kg/injection, schedule: Q01DX005 (iv), vehicle: other) 110 % of control; (dose: 25.0 mg/kg/injection, schedule: Q01DX005 (ip), vehicle: other) 113 % of control; (dose: 25.0 mg/kg/injection, schedule: Q01DX005 (ip), vehicle: saline with Tween-80) 105 % of control; (dose: 25.0 mg/kg/injection, schedule: Q01DX005 (sc), vehicle: other) 114 % of control; (dose: 30.0 mg/kg/injection, schedule: Q01DX009 (ip), vehicle: clinical formulation) 150 % of control; (dose: 38.9 mg/kg/injection, schedule: Q01DX009 (ip), vehicle: water) 203 % of control. The T/C runs as follows: (dose: 50.0 mg/kg/injection, schedule: Q01DX005 (ip), vehicle: other) 164 % of control; (dose: 50.0 mg/kg/injection, schedule: Q01DX005 (iv), vehicle: other) 160 % of control and 175 % of control; (dose: 50.0 mg/kg/injection, schedule: Q01DX005 (oral), vehicle: other) 105 % of control; (dose: 50.0 mg/kg/injection, schedule: Q01DX005 (sc), vehicle: other) 152 % of control; (dose: 50.0 mg/kg/injection, schedule: Q01DX009 (ip), vehicle: clinical formulation) 192 % of control; (dose: 50.0 mg/kg/injection, schedule: Q01DX009 (ip), vehicle: other) 166 % of control. Further, the T/C (dose: 64.8 mg/kg/injection, schedule: Q01DX009 (ip), vehicle: water) is 291 % of control; the T/C (dose: 71.4 mg/kg/injection, schedule: Q01DX005 (iv), vehicle: other) was 247 % of control; the T/C (dose: 71.4 mg/kg/injection, schedule: Q01DX009 (ip), vehicle: other) was 250 % of control; the T/C (dose: 83.3 mg/kg/injection, schedule: Q01DX009 (ip), vehicle: clinical formulation) was 106 % of control; the T/C (dose: 100.0 mg/kg/injection, schedule: Q01DX005 (ip), vehicle: saline with Tween-80) was 204 % of control; the T/C (dose: 100.0 mg/kg/injection, schedule: Q01DX005 (oral), vehicle: other) was 108 % of control. Further, the T/C runs as follows: (dose: 100.0 mg/kg/injection, schedule: Q01DX005 (sc), vehicle: other) 89 % of control; (dose: 200.0 mg/kg/injection, schedule: Q01DX005 (oral), vehicle: other) 113 % of control; (dose: 252.0 mg/kg/injection, schedule: Q01DX009 (oral), vehicle: other) 171 % of control; (dose: 378.0 mg/kg/injection, schedule: Q01DX009 (oral), vehicle: other) 162 % of control; (dose: 400.0 mg/kg/injection, schedule: Q01DX005 (oral), vehicle: other) 108 % of control; (dose: 800.0 mg/kg/injection, schedule: Q01DX005 (oral), vehicle: other) 229 % of control. Also, the T/C was 182 % of control (dose: 850.0 mg/kg/injection, schedule: Q01DX009 (oral), vehicle: other) and 225 % of control (dose: 1274.0 mg/kg/injection, schedule: Q01DX009 (oral), vehicle: other).
